# Molecular target: T1, IRAK4 (Homo sapiens, UniProt Q9NWZ3)
# T1 construct: His (N); TEV cleavage site (N)
# T1 sequence (Q9NWZ3 1-460): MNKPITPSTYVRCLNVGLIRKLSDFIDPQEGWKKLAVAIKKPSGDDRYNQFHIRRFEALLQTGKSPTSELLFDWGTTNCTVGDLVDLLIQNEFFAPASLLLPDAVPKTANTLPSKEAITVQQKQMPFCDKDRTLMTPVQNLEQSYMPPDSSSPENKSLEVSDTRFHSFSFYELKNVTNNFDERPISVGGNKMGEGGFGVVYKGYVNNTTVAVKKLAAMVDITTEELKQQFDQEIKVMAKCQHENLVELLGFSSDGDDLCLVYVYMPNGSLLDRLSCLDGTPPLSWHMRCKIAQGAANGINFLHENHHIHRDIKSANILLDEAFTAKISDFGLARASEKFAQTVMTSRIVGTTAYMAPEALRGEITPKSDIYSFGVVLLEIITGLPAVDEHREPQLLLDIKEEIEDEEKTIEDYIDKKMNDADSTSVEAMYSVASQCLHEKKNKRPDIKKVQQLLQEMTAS
# Assay: IRAK4 Enzymatic Assay
# Type: biochemical
# Details: His-TEV-IRAK4 20 ng/well, ATP 2 μM, STK1-biotin peptide 300 nM, 3 hours at 30° C., FlashPlate radioactivity
# Outline: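 Radiometric FlashPlate readout: biotin-STK1 substrate (300 nM) captured on streptavidin after EDTA stop and washes. Reaction used His-TEV-IRAK4 (20 ng/well), 2 μM [^33P]-spiked ATP and compound (1 nM-20 μM), incubated 3 h at 30 °C in 50 mM HEPES pH 7.0, 10 mM MgCl2, 5 mM MnCl2, 2 mM DTT.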
row,Structure (SMILES),IC50
1,"Cn1cc(-c2cccc(-c3ncc(-c4cnn(CC(=O)N5CCC5)c4)cn3)c2)cn1 [Example 77, 1-Azetidin-1-yl-2-(4-{2-[3-(1-methyl-1H-pyrazol-4-yl)-phenyl]-pyrimidin-5-yl}-pyrazol-1-yl)-ethanone]",100 to 1000 nM
2,"O=C(Cn1cc(-c2cnc(-c3cccc(-c4cnco4)c3)nc2)cn1)N1CCOCC1 [Example 78, 1-Morpholin-4-yl-2-{4-[2-(3-oxazol-5-yl-phenyl)-pyrimidin-5-yl]-pyrazol-1-yl}-ethanone]",100 to 1000 nM
3,"O=C(Cn1cc(-c2cnc(-c3cccc(-c4c[nH]nn4)c3)nc2)cn1)N1CCOCC1 [Example 79, 1-Morpholin-4-yl-2-(4-{2-[3-(1H-[1,2,3]triazol-4-yl)-phenyl]-pyrimidin-5-yl}-pyrazol-1-yl)-ethanone]",1000 to 5000 nM
4,"CC1CN(C(=O)Cn2cc(-c3cnc(-c4cccc(-c5cnn(C)c5)c4)nc3)cn2)CCO1 (stereo not shown) [Example 80, 1-(2-Methyl-morpholin-4-yl)-2-(4-{2-[3-(1-methyl-1H-pyrazol-4-yl)-phenyl]-pyrimidin-5-yl}-pyrazol-1-yl)-ethanone]",100 to 1000 nM
5,"Cn1cc(-c2cccc(-c3ncc(-c4cnn(CC(=O)N5CCC[C@H]5CO)c4)cn3)c2)cn1 [Example 81, 1-((S)-2-Hydroxymethyl-pyrrolidin-1-yl)-2-(4-{2-[3-(1-methyl-1H-pyrazol-4-yl)-phenyl]-pyrimidin-5-yl}-pyrazol-1-yl)-ethanone]",100 to 1000 nM
6,"Cn1cc(-c2cccc(-c3ncc(-c4cnn(CCC(=O)N5CCOCC5)c4)cn3)c2)cn1 [Example 83, 3-(4-{2-[3-(1-Methyl-1H-pyrazol-4-yl)-phenyl]-pyrimidin-5-yl}-pyrazol-1-yl)-1-morpholin-4-yl-propan-1-one]",1000 to 5000 nM
7,"Cn1cc(-c2cccc(-c3ncc(-c4cnn(CCC(=O)N5CCCC5)c4)cn3)c2)cn1 [Example 84, 3-(4-{2-[3-(1-Methyl-1H-pyrazol-4-yl)-phenyl]-pyrimidin-5-yl}-pyrazol-1-yl)-1-pyrrolidin-1-yl-propan-1-one]",1000 to 5000 nM
8,"CN(C)C(=O)CCn1cc(-c2cnc(-c3cccc(-c4cnn(C)c4)c3)nc2)cn1 [Example 85, N,N-Dimethyl-3-(4-{2-[3-(1-methyl-1H-pyrazol-4-yl)-phenyl]-pyrimidin-5-yl}-pyrazol-1-yl)-propionamide]",100 to 1000 nM
9,"Cn1cc(-c2cccc(-c3ncc(-c4cnn(CC(=O)N5CCC6(CC5)COC6)c4)cn3)c2)cn1 [Example 86, 2-(4-{2-[3-(1-Methyl-1H-pyrazol-4-yl)-phenyl]-pyrimidin-5-yl}-pyrazol-1-yl)-1-(2-oxa-7-aza-spiro[3.5]non-7-yl)-ethanone]",100 to 1000 nM
10,"COCCC1CN(C(=O)Cn2cc(-c3cnc(-c4cccc(-c5cnn(C)c5)c4)nc3)cn2)CCO1 (stereo not shown) [Example 87, 1-[2-(2-Methoxy-ethyl)-morpholin-4-yl]-2-(4-{2-[3-(1-methyl-1H-pyrazol-4-yl)-phenyl]-pyrimidin-5-yl}-pyrazol-1-yl)-ethanone]",100 to 1000 nM
11,"COCC1CCCN(C(=O)Cn2cc(-c3cnc(-c4cccc(-c5cnn(C)c5)c4)nc3)cn2)C1 (stereo not shown) [Example 88, 1-(3-Methoxymethyl-piperidin-1-yl)-2-(4-{2-[3-(1-methyl-1H-pyrazol-4-yl)-phenyl]-pyrimidin-5-yl}-pyrazol-1-yl)-ethanone]",100 to 1000 nM
12,"Cc1ncccc1CCn1cc(-c2cnc(-c3cccc(-c4cnn(C)c4)c3)nc2)cn1 [Example 89, 2-[3-(1-Methyl-1H-pyrazol-4-yl)-phenyl]-5-{1-[2-(2-methyl-pyridin-3-yl)-ethyl]-1H-pyrazol-4-yl}-pyrimidine]",100 to 1000 nM
13,"COC1CCN(C(=O)Cn2cc(-c3cnc(-c4cccc(-c5cnn(C)c5)c4)nc3)cn2)C1 (stereo not shown) [Example 90, 1-(3-Methoxy-pyrrolidin-1-yl)-2-(4-{2-[3-(1-methyl-1H-pyrazol-4-yl)-phenyl]-pyrimidin-5-yl}-pyrazol-1-yl)-ethanone]",100 to 1000 nM
